Reference: US20050176115A1, “Process for the production of methionine” (Nippon Soda Co., Ltd., priority 2002, published 2005)
Like-named read-outs stand apart in the source and are kept apart here.

Tests used:
[1] = ammonia present at an excessive amount in mole ratio to methionine; 5-50° C.; FIG. 1
Source text: About 20 wt % of methionine also can be dissolved in water by addition of inorganic alkali such as NaOH and KOH, while in this case it is required to neutralize with the use of acid to obtain a product in the form of salt-free solid of methionine, leading to a problem that an additional operation to remove a lot of inorganic salt waste generated from the neutralization is required.

[2] = cited from earlier work
[3] = by addition of inorganic alkali such as NaOH and KOH

CSCC[C@H](N)C(=O)O (racemic) [methionine]
solubility of methionine [1]: increases | water solubility ([2]; at 25° C.): 3.38 g/100 g·H2O | water solubility ([2]; at 50° C.): 6.07 g/100 g·H2O | amount of methionine that can be dissolved in water [3]: About 20 wt %
